The values that follow come from patent US20230157996A1, “SMALL-MOLECULE INHIBITOR TARGETING EB VIRUS NUCLEAR ANTIGEN PROTEIN, PREPARATION METHOD AND USE THEREOF” (priority 2020, published 2023).

One experiment has as its system C666-1 cells. Description: C666-1 cell viability single concentration (50 μM) inhibition rate (Resazurin). The format is cell-based. Conditions: 50 μM compound, 72 hours, C666-1 cells. The method, boiled down:
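Resazurin fluorescence (560/590 nm, 3 h development) gave the proliferation inhibition rate, normalised to DMSO-treated and cell-free blank wells. Compound was tested at a single 50 μmol/L final concentration on C666-1 cells for 72 h at 37° C, with duplicate wells, after 24 h seeding.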
Turning to `O=C(O)c1cccc(N2CC(Oc3ccc([N+](=O)[O-])cc3)C2)c1-n1cccc1` [Example 301, 3-(3-(4-nitrophenoxy)azetidin-1-yl)-2-(1H-pyrrol-1-yl)benzoic acid], the “C666-1 cell viability single concentration (50 μM) inhibition rate, Ratio* (Inh %)” value is listed as “++++ (>50% ++++)”.

Still in this experiment, the particulars now being: Homo sapiens, C6661, 72 h, 50 μM compound, 72 hours, C666-1 cells; read-out: C666-1 cell viability single concentration (50 μM) inhibition rate, Ratio* (Inh %).
Consider `COC(=O)c1cccc(C#CN(Cc2ccccc2)S(=O)(=O)c2ccc(C)cc2)c1-n1cccc1` [Example 271, Methyl 3-(((N-benzyl-4-methylphenyl)sulfonamido)ethynyl)-2-(1H-pyrrol-1-yl)benzoate], for which the inhibition at 50 µM was above 50%.

Turning to `COC(=O)c1cccc(C2CC2c2ccccc2)c1-n1cccc1` (centres unmarked) [Example 272, Methyl 3-(2-phenylcyclopropyl)-2-(1H-pyrrol-1-yl)benzoate], the inhibition at 50 µM was in the range of 10 to 30%.

In the case of `COc1ccc(C(O)C23CC(c4cccc(C(=O)O)c4)(C2)C3)cc1` (centres unmarked) [Example 273, 3-(3-(hydroxyl(4-methoxyphenyl)methyl)bicyclo[1. 1.1]pentan-1-yl)benzoic acid], the inhibition at 50 µM was below 10%.

As to `COC(=O)c1cccc(N2CC3(CN(c4ccccc4)C3)C2)c1-n1cccc1` [Example 274, Methyl 3-(6-phenyl-2,6-diazaspiro[3.3]heptan-2-yl)-2-(1H-pyrrol-1-yl)benzoate], the inhibition at 50 µM is below 10%.

Turning to `COC(=O)c1cccc(N2CC3(CN(c4ccccc4N)C3)C2)c1N` [Example 275, Methyl 2-amino-3-(6-(2-aminophenyl)-2,6-diazaspiro[3.3]heptan-2-yl)benzoate], the inhibition at 50 µM lay within 10 to 30%.

Regarding `O=C(O)c1cccc(N2CC(Oc3ccc(CO)cc3)C2)c1-c1ccco1` [Example 276], the inhibition at 50 µM was below 10%.

For `COC(=O)c1cccc(N2CC(Oc3ccc(CO)cc3)C2)c1-c1ccc2ccoc2c1` [Example 277], the inhibition at 50 µM was in the range of 10 to 30%.

Take `N#Cc1cccc(-c2c(C(=O)O)cccc2N2CC(Oc3ccc(CO)cc3)C2)c1` [Example 278]: the inhibition at 50 µM lay within 10 to 30%.

In the case of `COC(=O)c1cccc(N2CC(Oc3ccc(CO)cc3)C2)c1-c1cccc(C(=O)O)c1` [Example 279], the inhibition at 50 µM fell in the range of 10 to 30%.

In the case of `CS(=O)(=O)Nc1cccc(-c2c(C(=O)O)cccc2N2CC(Oc3ccc(CO)cc3)C2)c1` [Example 280], the inhibition at 50 µM was below 10%.

Consider `N#Cc1cc(-c2c(C(=O)O)cccc2N2CC(Oc3ccc(CO)cc3)C2)ccc1F` [Example 281, 3′-cyano-4′-fluoro-6-(3-(4-(hydroxymethyl)phenoxy)azetidin-1-yl)-[1,1′-biphenyl]-2-formic acid], for which the inhibition at 50 µM was below 10%.

As for `COC(=O)c1cccc(N2CC(Oc3cccc(C(=O)O)c3)C2)c1N` [Example 282, Methyl 2-amino-3-(3-(3-carboxylphenoxy)azetidin-1-yl)benzoate], the inhibition at 50 µM is below 10%.

Turning to `COC(=O)c1cccc(N2CC(Oc3ccc(CNS(=O)(=O)c4ccc(C)cc4)cc3)C2)c1-n1cccc1` [Example 283, Methyl 3-(3-(4-(((4-methylphenyl)sulfonamido)methyl)phenoxy)azetidin-1-yl)-2-(1H-pyrrol-1-yl)benzoate], the inhibition at 50 µM was above 50%.

Regarding `COC(=O)c1cccc(N2CC(Oc3cc(F)nc(F)c3)C2)c1-n1cccc1` [Example 284, Methyl 3-(3-((2,6-difluoropyridin-4-yl)oxy)azetidin-1-yl)-2-(1H-pyrrol-1-yl)benzoate], the inhibition at 50 µM is below 10%.

`O=C(O)c1cccc(N2CC(Oc3cc(F)nc(F)c3)C2)c1-n1cccc1` [Example 285, 3-(3-((2,6-difluoropyridin-4-yl)oxy)azetidin-1-yl)-2-(1H-pyrrol-1-yl)benzoic acid]: the inhibition at 50 µM is below 10%.

`COC(=O)c1cccc(N2CC(Oc3ccc([N+](=O)[O-])cc3)C2)c1-n1cccc1` [Example 286, Methyl 3-(3-(4-nitrophenoxy)azetidin-1-yl)-2-(1H-pyrrol-1-yl)benzoate]: the inhibition at 50 µM is 10 to 30%.

With `COC(=O)c1cccc(N2CC(Oc3cccc(-c4csc(NS(C)(=O)=O)n4)c3)C2)c1-n1cccc1` [Example 288, Methyl 3-(3-(3-(2-(methylsulfonamido)thiazol-4-yl)phenoxy)azetidin-1-yl)-2-(1H-pyrrol-1-yl)benzoate], the inhibition at 50 µM was below 10%.

Take `COc1ccccc1NC(=O)Nc1ccc(OC2CN(c3cccc(C(=O)O)c3-n3cccc3)C2)cc1` [Example 289, 3-(3-(4-(3-(2-methoxyphenyl)ureido)phenoxy)azetidin-1-yl)2-(1H-pyrrol-1-yl)benzoic acid]: the inhibition at 50 µM was in the range of 10 to 30%.

For the compound `COC(=O)c1cccc(N2CC(Oc3ccc(Oc4ccc(C(F)(F)F)cc4)cc3)C2)c1-n1cccc1` [Example 291, Methyl 3-(3-(4-(4-(trifluoromethyl)phenoxy)phenoxy)azetidin-1-yl)2-(1H-pyrrol-1-yl)benzoate], the inhibition at 50 µM is below 10%.

`COC(=O)c1cccc(N2CC(Oc3ccc(Oc4cccc(C(C)=O)c4)cc3)C2)c1-n1cccc1` [Example 293, Methyl 3-(3-(4-(3-acetylphenoxy)phenoxy)azetidin-1-yl)-2-(1H-pyrrol-1-yl)benzoate]: the inhibition at 50 µM lay within 10 to 30%.

On to `CC(=O)c1cccc(Oc2ccc(OC3CN(c4cccc(C(=O)O)c4-n4cccc4)C3)cc2)c1` [Example 294, 3-(3-(4-(3-acetylphenoxy)phenoxy)azetidin-1-yl)-2-(1H-pyrrol-1-yl)benzoic acid], for which the inhibition at 50 µM is below 10%.

On to `COC(=O)c1cccc(N2CC(Oc3cccc(NC(=O)Nc4ccc(OC(F)(F)F)cc4)c3)C2)c1-n1cccc1` [Example 295, Methyl 3-(3-(3-(3-(4-(trifluoromethoxy)phenyl)ureido)phenoxy)azetidin-1-yl)-2-(1H-pyrrol-1-yl)benzoate], for which the inhibition at 50 µM was above 50%.

In the case of `O=C(Nc1ccc(OC(F)(F)F)cc1)Nc1cccc(OC2CN(c3cccc(C(=O)O)c3-n3cccc3)C2)c1` [Example 296, 3-(3-(3-(3-(4-(trifluoromethoxy)phenyl)ureido)phenoxy)azetidin-1-yl)-2-(1H-pyrrol-1-yl)benzoic acid], the inhibition at 50 µM is below 10%.

In the case of `COC(=O)c1cccc(N2CC(Oc3cccc(CO)c3)C2)c1-n1cccc1` [Example 297, Methyl 3-(3-(3-(hydroxymethyl)phenoxy)azetidin-1-yl)-2-(1H-pyrrol-1-yl)benzoate], the inhibition at 50 µM lay within 30 to 50%.

Turning to `O=C(O)c1cccc(N2CC(Oc3cccc(CO)c3)C2)c1-n1cccc1` [Example 298, 3-(3-(3-(hydroxymethyl)phenoxy)azetidin-1-yl)-2-(1H-pyrrol-1-yl)benzoic acid], the inhibition at 50 µM is below 10%.

As to `COC(=O)c1cccc(N2CC(Oc3ccc(CO)cc3C)C2)c1-n1cccc1` [Example 299, Methyl 3-(3-(4-(hydroxymethyl)-2-methylphenoxy)azetidin-1-yl)-2-(1H-pyrrol-1-yl)benzoate], the inhibition at 50 µM is above 50%.

As for `Cc1cc(CO)ccc1OC1CN(c2cccc(C(=O)O)c2-n2cccc2)C1` [Example 300, 3-(3-(4-(hydroxymethyl)-2-methylphenoxy)azetidin-1-yl)-2-(1H-pyrrol-1-yl)benzoic acid], the inhibition at 50 µM was below 10%.

As for `CCNC(=O)c1ccc(OC2CN(c3cccc(C(=O)OC)c3-n3cccc3)C2)cc1` [Example 303, Methyl 3-(3-(4-(ethylcarbamoyl)phenoxy)azetidin-1-yl)-2-(1H-pyrrol-1-yl)benzoate], the inhibition at 50 µM fell in the range of 10 to 30%.

Take `COC(=O)c1cccc(N2CC(Oc3ccc4c(ccn4S(=O)(=O)c4ccc(C)cc4)c3)C2)c1-n1cccc1` [Example 304, Methyl 3-(3-((1-p-tolylsulfonyl-1H-indol-5-yl)oxy)azetidin-1-yl)-2-(1H-pyrrol-1-yl)benzoate]: the inhibition at 50 µM was below 10%.

On to `Cc1ccc(S(=O)(=O)n2ccc3cc(OC4CN(c5cccc(C(=O)O)c5-n5cccc5)C4)ccc32)cc1` [Example 305, 3-(3-((1-p-tolylsulfonyl-1H-indol-5-yl)oxy)azetidin-1-yl)-2-(1H-pyrrol-1-yl)benzoic acid], for which the inhibition at 50 µM was below 10%.

`COCCOc1ccc(OC2CN(c3cccc(C(=O)OC)c3-n3cccc3)C2)cc1OCCOC` [Example 306, Methyl 3-(3-(3,4-bis(2-methoxyethoxy)phenoxy)azetidin-1-yl)-2-(1H-pyrrol-1-yl)benzoate]: the inhibition at 50 µM was below 10%.

Consider `COCCOc1ccc(OC2CN(c3cccc(C(=O)O)c3-n3cccc3)C2)cc1OCCOC` [Example 307, 3-(3-(3,4-bis(2-methoxyethoxy)phenoxy)azetidin-1-yl)-2-(1H-pyrrol-1-yl)benzoic acid], for which the inhibition at 50 µM was below 10%.

Take `COC(=O)c1cccc(N2CC(Oc3ccc(OC4CCCCO4)cc3)C2)c1-n1cccc1` (centres unmarked) [Example 308, Methyl 3-(3-(4-((tetrahydro-2H-pyran-2-yl)oxy)phenoxy)azetidin-1-yl)-2-(1H-pyrrol-1-yl)benzoate]: the inhibition at 50 µM was below 10%.

As for `CNCCOc1ccc(OC2CN(c3cccc(C(=O)OC)c3-n3cccc3)C2)cc1` [Example 309, Methyl 3-(3-(4-(2-(methylamino)ethoxy)phenoxy)azetidin-1-yl)-2-(1H-pyrrol-1-yl)benzoate], the inhibition at 50 µM lay within 10 to 30%.

On to `COC(=O)c1cccc(N2CC(Oc3ccc(OCCN)cc3)C2)c1-n1cccc1` [Example 310, Methyl 3-(3-(4-(2-aminoethoxy)phenoxy)azetidin-1-yl)-2-(1H-pyrrol-1-yl)benzoate], for which the inhibition at 50 µM was below 10%.

`COC(=O)c1cccc(N2CC(Oc3ccc(OCCN)c(OC)c3)C2)c1-n1cccc1` [Example 311, Methyl 3-(3-(4-(2-aminoethoxy)-3-methoxyphenoxy)azetidin-1-yl)-2-(1H-pyrrol-1-yl)benzoate]: the inhibition at 50 µM is 10 to 30%.

Take `COC(=O)c1cccc(N2CC(Oc3ccc(OCCNC(C)=O)cc3)C2)c1-n1cccc1` [Example 312, Methyl 3-(3-(4-(2-acetylaminoethoxy)phenoxy)azetidin-1-yl)-2-(1H-pyrrol-1-yl)benzoate]: the inhibition at 50 µM fell in the range of 30 to 50%.
